The record followed here is ChEMBL document CHEMBL1201862, “PubChem BioAssay data set” (2004).

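Each compound was tested at five concentrations against cells in 96-well plates for 48 hours. GI50 is the concentration that inhibits growth by half.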 Calls of active or inactive are those of the source. No stated cut-off is given here; in the data, active = GI50 up to about 1.1 µM and inactive = higher. Some results are limits rather than exact numbers.

Common to all, as to assay: NCI anticancer screen, dose series, 48 h
Assay [1] relates to SK-MEL-2.
Assay [2] deals with NCI-H522.
Assay [3] has as its system K562.
In assay [4] the test system is OVCAR-4.
Assay [5] relates to UO-31.
Assay [6] has as its system HCT-15.
Assay [7] relates to SF-295.
The test system of assay [8] is NCI-H460.
For assay [9], the system named is SF-539.
Assay [10] has as its system CAKI-1.
Assay [11] relates to COLO 205.
The subject of assay [12] is HOP-62.
The subject of assay [13] is KM12.
Assay [14] has as its system SR.
Assay [15] concerns HL-60.
Assay [16] concerns UACC-62.
The test system of assay [17] is MDA-MB-435.
In assay [18] the test system is TK-10.
The test system of assay [19] is BT-549.

In the case of `N#C[BH2-][n+]1cn(C2CC(O)C(COP(=O)(O)OC3CC(n4ccc(N)nc4=O)OC3CO)O2)c2nc(N)[nH]c(=O)c21` (centres undefined), the GI50 in assay [1] is > 100 µM (inactive); in assay [2], > 100 µM (inactive); in [3], 10 µM (inactive); in [4], > 100 µM (inactive); in assay [5], > 100 µM (inactive); in assay [6] it was > 100 µM. The GI50 in assay [7], in [8], in [9], in assay [10], in assay [11] and in assay [12] was > 100 µM (inactive) throughout. In addition, the GI50 in assay [13], in [14], in assay [15] and in assay [16] was > 100 µM (inactive) throughout.

For `Clc1ccc(OCc2nn3c(CCc4nnc5sc(COc6ccc(Cl)cc6)nn45)nnc3s2)cc1`, the GI50 in assay [17] is 24.9 µM (inactive); in assay [1] it was 25.7 µM (inactive); in assay [2], 5.62 µM (inactive); in assay [3] it was 9.4 µM (inactive); in [4], 14.7 µM (inactive); in assay [5], 1.53 µM (inactive). Moreover, the GI50 is 18.2 µM in assay [6]; 26.4 µM (inactive) in assay [18]; 24.5 µM (inactive) in assay [7]; 18.4 µM (inactive) in [8]; 27.9 µM (inactive) in assay [9]; 3.35 µM (inactive) in [10]. Also, the GI50 in [12] was 23.7 µM (inactive); in [13], 18 µM (inactive); in [15] it was 18.8 µM (inactive).

Turning to `Cc1ccc(S(=O)(=O)n2c3c(c4ccccc42)CCN2CCC(Br)C[C@@H]32)cc1` (some centres undefined), the GI50 in assay [17] was 3.79 µM (inactive); in assay [1] it was 16.3 µM (inactive); in assay [2], 6.34 µM (inactive); in assay [3] it was 5.11 µM (inactive); in assay [4], 13.1 µM (inactive); in assay [5], 11.9 µM (inactive). Further, the GI50 was 12.1 µM in assay [6]; 15.6 µM (inactive) in assay [18]; 11 µM (inactive) in assay [7]; 14.9 µM (inactive) in assay [8]; 16.7 µM (inactive) in assay [9]; 11.8 µM (inactive) in assay [10]. Moreover, the GI50 in assay [11] is 16.3 µM (inactive); in [12], 15 µM (inactive); in [13] it was 8.81 µM (inactive); in assay [14] it was 5.11 µM (inactive); in assay [15], 5.12 µM (inactive); in assay [16], 11.9 µM (inactive).

With `Nc1nc(-c2ccccc2)cc(-c2cc(Cl)ccc2O)n1`, the GI50 in [2] was 25.9 µM (inactive); in [3] it was > 100 µM (inactive); in assay [4], 63.8 µM (inactive); in assay [5], 39.9 µM (inactive); in assay [6], > 100 µM; in [18], 54.2 µM (inactive). Besides, the GI50 was 83.6 µM (inactive) in assay [7]; 43.9 µM (inactive) in [8]; 31.6 µM (inactive) in assay [9]; 74.5 µM (inactive) in assay [10]; > 100 µM (inactive) in assay [11]; 29.1 µM (inactive) in assay [12]. Further, the GI50 is 50.9 µM (inactive) in assay [13], > 100 µM (inactive) in [14], > 100 µM (inactive) in [15] and > 100 µM (inactive) in assay [16].

Take `CC1=CC(=O)/C(=C/NC(=S)c2ccccc2)C(=O)O1`: the GI50 was > 100 µM (inactive) in assay [17]; > 100 µM (inactive) in [1]; > 100 µM (inactive) in assay [4]; > 100 µM (inactive) in [5]; > 100 µM in assay [6]; > 100 µM (inactive) in assay [18]. Further, the GI50 in [7], in assay [8], in assay [9], in assay [10], in assay [11] and in [19] was > 100 µM (inactive) throughout. The GI50 in assay [12], in [13] and in [16] was > 100 µM (inactive) each time.

As for `COc1ccc(CCCN2c3ccccc3Sc3ccccc32)cc1`, the GI50 in assay [1] is > 100 µM (inactive); in [2] it was 33.1 µM (inactive); in assay [3] it was 17.3 µM (inactive); in assay [4], 53.2 µM (inactive); in [5] it was > 100 µM (inactive); in [6] it was 27.9 µM. Also, the GI50 in assay [18] is > 100 µM (inactive); in [7], > 100 µM (inactive); in assay [8], 99.5 µM (inactive); in assay [9], > 100 µM (inactive); in assay [10], > 100 µM (inactive); in [11], 43.4 µM (inactive). Moreover, the GI50 in assay [12] is > 100 µM (inactive); in [13] it was > 100 µM (inactive); in assay [15] it was 41.3 µM (inactive); in assay [16] it was > 100 µM (inactive).

As for `CC(C)(C)[Si](C)(C)OCCc1ccccc1C1CC2(S(=O)(=O)c3ccccc3)ON1CC2S(=O)(=O)c1ccccc1` (centres undefined), the GI50 in assay [17], in [1], in assay [3], in assay [4], in assay [5] and in assay [18] was > 100 µM (inactive) each time. Further, the GI50 in [7], in assay [8], in assay [9], in [11], in [19] and in assay [12] was > 100 µM (inactive) throughout. In addition, the GI50 in assay [13] and in [16] was > 100 µM (inactive) in each case.

Turning to `Nc1ccccc1/C=C\c1ccccc1`, the GI50 in [17] was > 100 µM (inactive); in assay [3] it was > 100 µM (inactive); in assay [5], > 100 µM (inactive); in [6], > 100 µM; in assay [18], > 100 µM (inactive); in assay [7] it was > 100 µM (inactive). For the same compound, the GI50 in [8], in [9], in assay [19], in assay [12], in [13] and in assay [15] was > 100 µM (inactive) each time. In addition, in [16], the GI50 was > 100 µM (inactive).

For `CCOC(=O)OC1(c2ccccc2)CCN(C)CC1`, the GI50 in assay [17], in assay [1], in assay [2], in [3], in assay [4] and in assay [5] was > 100 µM (inactive) each time. Besides, the GI50 in assay [6] was > 100 µM; in assay [18] it was > 100 µM (inactive); in [7], > 100 µM (inactive); in assay [8], > 100 µM (inactive); in assay [9] it was > 100 µM (inactive); in assay [10], > 100 µM (inactive). The GI50 in assay [11], in assay [12], in assay [13], in [14], in assay [15] and in assay [16] was > 100 µM (inactive) each time.

Consider `N#CC1(C#N)C2CCCCC23OC(=N)C1(C#N)C(c1ccco1)O3` (centres undefined), for which the GI50 in assay [17] is 19.8 µM (inactive); in [1] it was 17.6 µM (inactive); in assay [3] it was 8.38 µM (inactive); in [5] it was 30.3 µM (inactive); in [6] it was 9.23 µM; in assay [18], 17.1 µM (inactive). Besides, the GI50 in [7] was > 100 µM (inactive); in assay [8] it was 25.8 µM (inactive); in assay [9], 23.8 µM (inactive); in assay [10], 11.6 µM (inactive); in assay [11], 11.9 µM (inactive); in assay [19], 15.6 µM (inactive). The GI50 in assay [13] is 33.8 µM (inactive); in [16] it was 16.6 µM (inactive).

As to `O=S(=O)(O)c1ccc2c(/N=N/c3ccc(Cl)cc3)c(O)ccc2c1`, the GI50 in [17], in assay [1], in [2], in [3], in assay [4] and in [5] was > 100 µM (inactive) throughout. Further, the GI50 was > 100 µM in assay [6]; > 100 µM (inactive) in assay [18]; > 100 µM (inactive) in assay [7]; > 100 µM (inactive) in assay [10]; > 100 µM (inactive) in assay [11]; > 100 µM (inactive) in assay [19]. In addition, the GI50 in assay [12], in assay [13] and in [16] was > 100 µM (inactive) throughout.

`Cn1c2ccc3cc2c(=S)c2cc(ccc21)OCCOCCOCCOCCOCCOCCO3`: the GI50 in assay [1] is > 10 µM (inactive); in assay [2] it was > 10 µM (inactive); in assay [3] it was > 10 µM (inactive); in assay [4] it was > 10 µM (inactive); in assay [5], > 10 µM (inactive); in [6] it was > 10 µM. For the same compound, the GI50 in assay [18], in assay [7], in assay [8], in [9], in assay [10] and in [11] was > 10 µM (inactive) in each case. For the same compound, the GI50 in assay [19], in assay [12], in assay [13], in [14] and in assay [15] was > 10 µM (inactive) each time.

For the compound `[N-]=[N+]=CC(=O)OCC1NC(=O)C(COC(=O)C=[N+]=[N-])NC1=O` (centres undefined), the GI50 was > 100 µM (inactive) in assay [17]; > 100 µM (inactive) in assay [1]; > 100 µM (inactive) in assay [3]; > 100 µM (inactive) in assay [4]; > 100 µM (inactive) in assay [5]; > 100 µM in assay [6]. The GI50 in assay [18], in assay [7], in [8], in [9], in assay [10] and in assay [11] was > 100 µM (inactive) each time. For the same compound, the GI50 in [12], in [13], in assay [14], in assay [15] and in assay [16] was > 100 µM (inactive) each time.
